Test results reported in publication PMC10226041, “Discovery of Ruthenium(II) Metallocompound and Olaparib Synergy for Cancer Combination Therapy” (Journal of Medicinal Chemistry, 2023).
Structures can show the parent of a compound that is named as a salt.

How the values were obtained:
MDA-MB-231 cells [1] = assay: MTT cell viability assay, MDA-MB-231 cells; format: cell-based, human; details: for IC50 / fold shift = IC50 (−OLAP)/IC50 (+OLAP): MDA-MB-231, 72 h; for IC50: MTT, read-out: IC50, –OLAP (compound alone); for fold shift = IC50 (−OLAP)/IC50 (+OLAP): Olaparib 10 μM
Procedure: (§1) Following treatment, solutions were removed, thiazolyl blue tetrazolium bromide (MTT, 0.5 mg/mL) reagent was added to the cells, and plates were incubated for 4 h. The reduced purple formazan crystals were solubilized with 100 μL of DMSO, and the absorbance at 570 nm (620 nm as reference wavelength) was measured using a microplate reader. The average in percent reduction of cell viability was expressed relative to untreated control cells. The combinatorial effect was evaluated by the generation of the compound dose–response curve and a shift of the IC50 value in the presence or absence of Olaparib (graphed and calculated using GraphPad Prism software).

MDA-MB-231 cells [2] = assay: Drug interaction analysis (Chou and Talalay combination index) with Olaparib from MTT data; format: cell-based, human; details: MDA-MB-231, Olaparib 10 μM, result in words
Procedure: as §1
Dose–effect curves for single agents and their combinations were generated from the MTT assay data, and the combination index (CI) values were calculated using CalcuSyn and CompuSyn software (Biosoft, Cambridge, UK) as established by Chou and Talalay.[43] CI < 0.9 indicates synergism, CI = 0.9–1.0 indicates additive, and CI > 1 indicates antagonism. GraphPad Prism Software was used to generate a 3-color scale based on CI values obtained, where synergism is represented by green, additive by yellow, and antagonism by red. The colors of each CI value were interpolated in between these constraints accordingly.

[3] = octanol/water partition coefficient; source not given; cited from earlier work
[4] = system: TNBC and lung cancer cells; design: method as in PMID 31898884, PMID 36702871; details: sub-cytotoxic concentrations of Ru-PIP; cited from earlier work
MCF10A cells = assay: MTT cell viability assay, MCF10A normal breast cells; format: cell-based; details: Homo sapiens, MCF-10A, 72 h, single agent, read-out: IC50 MCF10A, –OLAP (single agent)
Procedure: as §1, with “Cells were seeded at 5 × 10^3 cells/well for MCF7 cells and 1 × 10^4 cells/well for MDA-MB-231 and MCF10A cells, respectively, in 96-well plates, allowed to adhere for 24 h, and treated as described in the main text. Following” for “Following”

[5] = system: MDA-MB-231 3D tumor spheroids; assay: Spheroid growth inhibition, MDA-MB-231 spheroids; format: cell-based, human; details: compound 1 μM in combination with Olaparib 10 μM
Procedure: (§2) Spheroids were grown as described initially. […] Spheroids were treated with the identified combinations and single drugs alone for 72 h. Every other day thereafter, 50% of the treatment-containing medium was replaced. Spheroids were imaged every three days for a period of 12 days using a microscope attached to a digital camera. The structural integrity of spheroids following treatments was observed, and the volume was measured as initially described.

MCF7 3D tumor spheroids = assay: Spheroid growth inhibition, MCF7 spheroids; format: cell-based, human; details: compound 1 μM in combination with Olaparib 10 μM
Procedure: as §2

MCF7 cells [6] = assay: MTT cell viability assay, MCF7 cells; format: cell-based, human; details: for IC50: Homo sapiens, MCF7, 72 h, MTT, single agent, read-out: IC50 MCF7, –OLAP (single agent)
Procedure: as §1, with “Cells were seeded at 5 × 10^3 cells/well for MCF7 cells and 1 × 10^4 cells/well for MDA-MB-231 and MCF10A cells, respectively, in 96-well plates, allowed to adhere for 24 h, and treated as described in the main text. Following” for “Following”

MDA-MB-231R cells = assay: Clonogenic survival assay, Olaparib-resistant MDA-MB-231R cells; format: cell-based, human
Procedure: The Olaparib-resistant MDA-MB-231 cell line (MDA-MB-231R) was developed from the parental MDA-MB-231 cell line by long-term drug exposure (∼8 months, 10–100 μM Olaparib) in a similar manner described by Kim et al.[45] MDA-MB-231 cells were seeded at a density of 1.5 × 10^5 cells in a 25 cm^2 flask and allowed to adhere for 24 h. Cells were treated with a starting Olaparib concentration of 10 μM, and treatments were refreshed every 3 days. After each week, the confluency was assessed: if confluency is <50%, the treatment was stopped; if confluency is at 50–70%, the treatment was maintained; and if confluency is over 70%, a portion of the cells was frozen. When the cells adapted to a new drug concentration, cells were reseeded at a density of 1.5 × 10^5 cells in a new 25 cm^2 flask and allowed to adhere before the next exposure to the increased concentration of Olaparib. This procedure was repeated to achieve a final concentration of Olaparib of 100 μM. Following this, MDA-MB-231R cells were maintained in a low concentration of Olaparib (10 μM) to preserve resistance. […]
Cells were seeded at 1 × 10^3 cells/well in 6-well plates, allowed to adhere for 24 h, and treated as described in the main text. […] Individual colonies were counted using ImageJ software, and the survival fraction was determined (normalized to controls).

[7] = system: wild-type zebrafish (Danio rerio) embryos; details: in vivo
Procedure: Wild-type zebrafish embryos were obtained from breeding facilities at Danio Assay Laboratories Sdn.Bhd. (Universiti Putra Malaysia). […] Danio-SprintM embryo media were used as a control. Survival and hatching rates were observed under a microscope attached with a digital camera and imaged at 24, 48, 72, and 96 hpf. […] Four lethal endpoints were evaluated including coagulated embryos, lack of somite formation, non-detachment of the tail, and lack of heartbeat. All these characteristics were recorded every 24 hpf, except the heartbeat, which is visible after 48 hpf.

MCF7 cells [8] = assay: Clonogenic survival assay, MCF7 cells; format: cell-based; details: Homo sapiens, 72 h treatment, read-out: IC50 values of OLAP, – Compound
Procedure: (§3) Cells were seeded at 1 × 10^3 cells/well in 6-well plates, allowed to adhere for 24 h, and treated as described in the main text. After treatment, solutions were removed, and cells were cultured in compound-free medium for 7–10 days to allow colony formation. Cells were then washed (1× PBS, twice), fixed (ice-cold 100% methanol, 15–20 min, 4 °C), and stained (0.5% crystal violet solution, 20 min). The staining solution was washed with water, and images were photographed with a digital camera. Individual colonies were counted using ImageJ software, and the survival fraction was determined (normalized to controls).

MDA-MB-231 cells [9] = assay: Clonogenic survival assay, MDA-MB-231 cells; format: cell-based; details: Homo sapiens; MDA-MB-231, clonogenic, 72 h treatment; read-out: IC50 values of OLAP, – Compound
Procedure: as §3

MDA-MB-231 cells [10] = details: 72 h, 10 µM
Procedure: Cells were seeded at 3 × 10^5 cells/well in 6-well plates, allowed to adhere for 24 h, and treated as described in the main text. After treatment, cells were trypsinized and washed with 1× PBS twice. This was followed by the addition of 500 μL of 1× binding buffer and 5 μL of Annexin V-FITC (Invitrogen). The cell-containing mixture was incubated for 20 min at RT. A total of 5 μL of PI (20 μg/mL) was added prior to flow cytometric analysis using a flow cytometer, and results were analyzed using NovoExpress software. For each sample, a minimum of 10,000 cells were counted.

O=c1c(O)c(-c2ccc(O)c(O)c2)oc2cc(O)cc(O)c12 [Quercetin, reference compound]
IC50 (MDA-MB-231 cells [1]; Homo sapiens, single agent): > 100 µM

Oc1ccc(-c2nc3c4ccc[n+]5c4c4c(ccc[n+]4[Ru-4]546([n+]5cccc7ccc8ccc[n+]4c8c75)[n+]4cccc5ccc7ccc[n+]6c7c54)c3[nH]2)cc1 [Compound 4, [Ru(phen)2(H-PIP)]^2+]
IC50 (MDA-MB-231 cells [1]; single agent): 11.6 ± 3.2 µM
fold shift = IC50 (−OLAP)/IC50 (+OLAP) (MDA-MB-231 cells [1]): 6.8
Synergy with Olaparib (CI scores of less than 0.9 considered synergistic) (MDA-MB-231 cells [2]): additive relationship with Olaparib

C[C@@H]1COCCN1c1cc(C2([S@](C)(=N)=O)CC2)nc(-c2cc[nH]c3nccc2-3)n1 [Ceralasertib, reference compound]
IC50 (MDA-MB-231 cells [1]; Homo sapiens, single agent): 4.4 ± 0.4 µM
fold shift = IC50 (−OLAP)/IC50 (+OLAP) (MDA-MB-231 cells [1]): 0.9
Log P [3]: 1.91

Cc1cc(C)c2nc3c4ccc[n+]5c4c4c(ccc[n+]4[Ru-4]546([n+]5cc(C)ccc5-c5ccc(C)c[n+]54)[n+]4cc(C)ccc4-c4ccc(C)c[n+]46)c3nc2c1 [Compound 6, [Ru(5,5′dmb)2(dmdppz)]^2+]
IC50 (MDA-MB-231 cells [1]; single agent): 87.4 ± 2.3 µM
fold shift = IC50 (−OLAP)/IC50 (+OLAP) (MDA-MB-231 cells [1]): 5.0

Nc1ccn([C@@H]2O[C@H](CO)[C@@H](O)C2(F)F)c(=O)n1 [gemcitabine hydrochloride, reference compound]
IC50 (MDA-MB-231 cells [1]; Homo sapiens, single agent): 1.6 ± 0.8 µM
fold shift = IC50 (−OLAP)/IC50 (+OLAP) (MDA-MB-231 cells [1]): 2.7

O=c1[nH]cc(F)c(=O)[nH]1 [Fluorouracil, reference compound]
IC50 (MDA-MB-231 cells [1]; Homo sapiens, single agent): 12.1 ± 3 µM

[Ru+2].c1ccc(-c2nc3c4cccnc4c4ncccc4c3[nH]2)cc1.c1ccc2nc3c4cccnc4c4ncccc4c3nc2c1.c1ccc2nc3c4cccnc4c4ncccc4c3nc2c1 [Ru-PIP, [Ru(dppz)2(PIP)]^2+]
increase in Olaparib potency [4]: > 300 fold

[Ru+2].c1ccc(-c2ccccn2)nc1.c1ccc(-c2ccccn2)nc1.c1ccc(-c2nc3c4cccnc4c4ncccc4c3[nH]2)cc1 [Compound 1, [Ru(bpy)2(PIP)]^2+]
IC50 (MDA-MB-231 cells [1]; single agent): > 100 µM
fold shift = IC50 (−OLAP)/IC50 (+OLAP) (MDA-MB-231 cells [1]): >1.3

Cc1nc2c(O)cccc2c(=O)[nH]1 [NU1025]
Log P [3]: 0.47

N.N.[Cl][Pt][Cl] [cisplatin, reference compound]
IC50 (MDA-MB-231 cells [1]; single agent): 35.3 ± 5.5 µM

COc1cc(/C=C/C(=O)CC(=O)/C=C/c2ccc(O)c(OC)c2)ccc1O [Curcumin, reference compound]
IC50 (MCF10A cells): 37.4 ± 6 µM
IC50 (MDA-MB-231 cells [1]; Homo sapiens, single agent): 25.1 ± 2.4 µM
day of complete disintegration of spheroids [5]: 6 days
Log P [3]: 4.12
day of complete disintegration of spheroids (MCF7 3D tumor spheroids): 9 days
IC50 (MCF7 cells [6]): 22.5 ± 4.1 µM
inhibition of colony formation (MDA-MB-231R cells; MDA-MB-231R, compound 1 μM alongside Olaparib 0.1–100 μM, 72 h): retains the ability to inhibit colony formation in a similar manner to the parental MDA-MB-231 cells
Synergy with Olaparib (CI scores of less than 0.9 considered synergistic) (MDA-MB-231 cells [2]): synergistic over most of the tested concentrations
hatching rate [7]: neither 10 nor Curcumin impacted the hatching rate significantly

O=C(c1cc(Cc2n[nH]c(=O)c3ccccc23)ccc1F)N1CCN(C(=O)C2CC2)CC1 [Olaparib]
IC50 (MCF7 cells [8]): 2.72 ± 0.45 µM
IC50 (MCF10A cells): > 100 µM
IC50 (MDA-MB-231 cells [1]; Homo sapiens, single agent): 80.9 ± 15 µM
SI MDA-MB-231 (IC50 MCF10A/IC50 cancer cell line), single agent (MDA-MB-231 cells [1]; single agent, 72 h): >1.2
IC50 (MDA-MB-231 cells [9]): > 10 µM
SI MCF7 (IC50 MCF10A/IC50 cancer cell line), single agent (MCF7 cells [6]; 72 h): >1.4
IC50 (MCF7 cells [6]): 69.6 ± 6.3 µM
level of resistance of MDA-MB-231R compared to parental MDA-MB-231 cells (MDA-MB-231R cells; clonogenic survival assay): 28 fold
percentage of cells in quadrant Q3-1 (MDA-MB-231 cells [10]): 0.34%
percentage of cells in quadrant Q3-2 (apoptotic) (MDA-MB-231 cells [10]): 1.44%
percentage of cells in quadrant Q3-3 (MDA-MB-231 cells [10]): 82.66%
percentage of cells in quadrant Q3-4 (apoptotic) (MDA-MB-231 cells [10]): 15.56%
pericardial edema (PE) ([7]; 96 hpf, 25 mg/L): 45.8% ± 17.7
spinal deformity (SD) ([7]; 96 hpf, 25 mg/L): 75.0% ± 23.6
yolk sac edema (YSE) ([7]; 96 hpf, 25 mg/L): 45.8% ± 29.5

Cc1cc[n+]2c(c1)-c1cc(C)cc[n+]1[Ru-4]213([n+]2ccc(C)cc2-c2cc(C)cc[n+]21)[n+]1cccc2c4nc5cc(C)cc(C)c5nc4c4ccc[n+]3c4c21 [Compound 7, [Ru(4,4′dmb)2(dmdppz)]^2+]
IC50 (MDA-MB-231 cells [1]; single agent): 34.3 ± 0.5 µM
fold shift = IC50 (−OLAP)/IC50 (+OLAP) (MDA-MB-231 cells [1]): 2.3
Synergy with Olaparib (CI scores of less than 0.9 considered synergistic) (MDA-MB-231 cells [2]): additive relationship with Olaparib

c1ccc(-c2nc3c4ccc[n+]5c4c4c(ccc[n+]4[Ru-4]546([n+]5cccc7ccc8ccc[n+]4c8c75)[n+]4cccc5ccc7ccc[n+]6c7c54)c3[nH]2)cc1 [Compound 3, [Ru(phen)2(PIP)]^2+]
IC50 (MDA-MB-231 cells [1]; single agent): 29.2 ± 3.7 µM
fold shift = IC50 (−OLAP)/IC50 (+OLAP) (MDA-MB-231 cells [1]): 3.7
Synergy with Olaparib (CI scores of less than 0.9 considered synergistic) (MDA-MB-231 cells [2]): additive relationship with Olaparib

Cc1cc(C)c2nc3c4ccc[n+]5c4c4c(ccc[n+]4[Ru-4]546([n+]5ccccc5-c5cccc[n+]54)[n+]4ccccc4-c4cccc[n+]46)c3nc2c1 [Compound 5, [Ru(bpy)2(dmdppz)]^2+]
IC50 (MDA-MB-231 cells [1]; single agent): 75.1 ± 12.2 µM
fold shift = IC50 (−OLAP)/IC50 (+OLAP) (MDA-MB-231 cells [1]): <0.8

CNCc1ccc(-c2cc(-c3nc(-c4ccc(S(=O)(=O)C(C)C)cc4)cnc3N)on2)cc1 [Berzosertib, reference compound]
IC50 (MDA-MB-231 cells [1]; Homo sapiens, single agent): 0.46 ± 0.01 µM
fold shift = IC50 (−OLAP)/IC50 (+OLAP) (MDA-MB-231 cells [1]): 1.7
Log P [3]: 3.16
